Test results reported in patent US8937072B2, “Substituted cyanoaniline compounds, preparation and use thereof” (Sinochem Corporation, priority 2011, dated 2015).
Like-named read-outs stand apart in the source and are kept apart here.

Columns and labels:
wheat powdery mildew = assay: Protectant activity in vivo (whole plant) against wheat powdery mildew; conditions: for pest or weed control at 400 µg/mL: Triticum aestivum, 168 h
Description: The method is as followed: The whole plant is used in this test. The compound is dissolved in a proper solvent to get mother solution. The proper solvent is selected from acetone, methanol, DMF and so on according to their dissolving capability to the sample. The volume rate of solvent and testing solution (v/v) is equal to or less than 5%. The mother solution is diluted with water containing 0.1% tween-80 to get the testing solution whose concentration is designed. The testing solution is sprayed to the host plant by a special plant sprayer. The plant is inoculated with fungus after 24 hours. According to the infecting characteristic of fungus, the plant is stored in a humidity chamber and then transferred into greenhouse after infection is finished. And the other plants are placed in greenhouse directly. The activity of compound is obtained by eyeballing after 7 days in common.

corn rust = assay: Protectant activity in vivo (whole plant) against corn rust; conditions: for pest or weed control at 6.25 µg/mL / pest or weed control at 25 µg/mL / pest or weed control at 100 µg/mL / pest or weed control at 400 µg/mL: Zea mays, 168 h; for pest or weed control at 6.25 µg/mL: 6.25 mg/L; for pest or weed control at 25 µg/mL: 25 mg/L; for pest or weed control at 100 µg/mL: 100 mg/L
Summary of the method: (§1)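 Compound stock in organic solvent (≤5% v/v) diluted in water with 0.1% Tween-80 and sprayed onto whole host plants. Fungal inoculation 24 h later; humidity chamber then greenhouse as the pathogen requires. Activity rated visually, usually after 7 days.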

cucumber gray mold = assay: Activity in vitro (96-well, High Through Put): inhibition rate against cucumber gray mold; type: cell-based; conditions: for inhibition rate against cucumber gray mold / inhibition at 25 µg/mL: in vitro; for inhibition at 0.9 µg/mL / inhibition at 2.8 µg/mL / inhibition at 8.3 µg/mL: read-out: the inhibition rate against cucumber gray mold (%); for inhibition at 25 µg/mL: dose 25 mg/L
Summary of the method: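 Compound in acetone, methanol or DMF was combined with pathogen suspension under sterile conditions and held in a constant-temperature box. After 24 hours germination or growth was scored by eye against an untreated control to give the inhibition rate.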

rice blast = assay: microbe, parasite or virus in culture; type: cell-based; conditions: for inhibition at 0.03 µg/mL: read-out: the inhibition rate against rice blast (%) 0.03 mg/L; for inhibition at 0.1 µg/mL: read-out: the inhibition rate against rice blast (%) 0.1 mg/L; for inhibition at 0.3 µg/mL: read-out: the inhibition rate against rice blast (%) 0.3 mg/L; for the inhibition rate against rice blast (%) 0.03 mg/L: Table 21, 0.03 mg/L; for the inhibition rate against rice blast (%) 0.1 mg/L: Table 21, 0.1 mg/L; for the inhibition rate against rice blast (%) 0.3 mg/L: Table 21, 0.3 mg/L
cucumber downy mildew = assay: Protectant activity in vivo (whole plant) against cucumber downy mildew; conditions: for pest or weed control at 12.5 µg/mL / pest or weed control at 25 µg/mL / pest or weed control at 50 µg/mL / pest or weed control at 100 µg/mL / pest or weed control at 400 µg/mL: Cucumis sativus, 168 h; for pest or weed control at 25 µg/mL / pest or weed control at 50 µg/mL / pest or weed control at 100 µg/mL: read-out: the protectant activity (%) against cucumber downy mildew
Summary of the method: as §1

[1] = 400 mg/L, read-out: the protectant activity (%) against corn rust
[2] = dose 400 mg/L, read-out: protectant activity against corn rust in vivo

SMILES	protectant activity against corn rust in vivo (corn rust; dose 400 mg/L) [%]	pest or weed control at 12.5 µg/mL (cucumber downy mildew; 12.5 mg/L) [%]	pest or weed control at 25 µg/mL (cucumber downy mildew; 25 mg/L) [%]	pest or weed control at 50 µg/mL (cucumber downy mildew; 50 mg/L) [%]	pest or weed control at 100 µg/mL (cucumber downy mildew; 100 mg/L) [%]	pest or weed control at 400 µg/mL (cucumber downy mildew; dose 400 mg/L) [%]	pest or weed control at 400 µg/mL (corn rust; [1]) [%]	pest or weed control at 400 µg/mL (corn rust; [2]) [%]	inhibition at 0.3 µg/mL (cucumber gray mold; 0.3 mg/L) [%]	inhibition at 0.9 µg/mL (cucumber gray mold; 0.9 mg/L) [%]	inhibition at 2.8 µg/mL (cucumber gray mold; 2.8 mg/L) [%]	inhibition at 8.3 µg/mL (cucumber gray mold; 8.3 mg/L) [%]	inhibition at 25 µg/mL (cucumber gray mold) [%]	further results
N#Cc1c(F)c(F)c(C#N)c(Nc2c(Cl)cc(C(F)(F)F)cc2Cl)c1F [Compound C-98]	100	–	–	–	–	–	–	–	–	–	–	–	–	protectant activity against wheat powdery mildew in vivo (wheat powdery mildew; dose 100 mg/L): 80%; protectant activity against wheat powdery mildew in vivo (wheat powdery mildew; dose 400 mg/L): 100%; inhibition rate against cucumber gray mold (cucumber gray mold; dose 8.3 mg/L): 80%
CN(C)c1ccc(Nc2c(Cl)c(F)c(C#N)c(F)c2C#N)cc1 [KC25]	–	0	0	0	0	0	0	0	0	0	0	0	0	inhibition at 25 µg/mL (rice blast; Pyricularia oryzae, read-out: inhibition rate against rice blast): 0%; inhibition at 0.03 µg/mL (rice blast; Pyricularia oryzae): 0%; inhibition at 0.1 µg/mL (rice blast; Pyricularia oryzae): 0%; inhibition at 0.3 µg/mL (rice blast; Pyricularia oryzae): 0%; pest or weed control at 6.25 µg/mL (corn rust): 0%; pest or weed control at 25 µg/mL (corn rust): 0%; pest or weed control at 100 µg/mL (corn rust): 0%
N#Cc1c(Cl)c(Cl)c(C#N)c(Nc2c(Cl)cc(C(F)(F)F)cc2Cl)c1Cl [Compound C-50]	100	–	–	–	–	–	–	–	–	–	–	–	–	the inhibition rate against rice blast (%) 0.03 mg/L (rice blast): 100%; the inhibition rate against rice blast (%) 0.1 mg/L (rice blast): 100%; the inhibition rate against rice blast (%) 0.3 mg/L (rice blast): 100%; protectant activity against wheat powdery mildew in vivo (wheat powdery mildew; dose 400 mg/L): 100%
Cc1cc([N+](=O)[O-])cc(Cl)c1Nc1c(Cl)c(Cl)c(C#N)c(Cl)c1C#N [Compound B-58]	100	–	–	–	–	–	–	–	–	–	–	–	–	the inhibition rate against rice blast (%) 0.03 mg/L (rice blast): 0%; the inhibition rate against rice blast (%) 0.1 mg/L (rice blast): 50%; the inhibition rate against rice blast (%) 0.3 mg/L (rice blast): 100%; the protectant activity (%) against cucumber downy mildew (cucumber downy mildew; 12.5 mg/L): 98%; the protectant activity (%) against cucumber downy mildew (cucumber downy mildew; 25 mg/L): 98%; the protectant activity (%) against cucumber downy mildew (cucumber downy mildew; 50 mg/L): 100%; the protectant activity (%) against cucumber downy mildew (cucumber downy mildew; 100 mg/L): 100%; protectant activity against cucumber downy mildew in vivo (cucumber downy mildew; dose 12.5 mg/L): 98%; protectant activity against cucumber downy mildew in vivo (cucumber downy mildew; dose 50 mg/L): 100%; protectant activity against cucumber downy mildew in vivo (cucumber downy mildew; dose 100 mg/L): 100%; protectant activity against cucumber downy mildew in vivo (cucumber downy mildew; dose 400 mg/L): 100%; the inhibition rate against cucumber gray mold (%) (cucumber gray mold; 0.3 mg/L): 80%; the inhibition rate against cucumber gray mold (%) (cucumber gray mold; 0.9 mg/L): 100%; the inhibition rate against cucumber gray mold (%) (cucumber gray mold; 2.8 mg/L): 100%; the inhibition rate against cucumber gray mold (%) (cucumber gray mold; 8.3 mg/L): 100%; inhibition rate against cucumber gray mold (cucumber gray mold; dose 0.3 mg/L): 80%
N#Cc1c(F)c(F)c(Nc2ccccc2)c(F)c1C#N [KC13]	–	0	0	0	0	0	0	0	0	0	0	0	0	pest or weed control at 400 µg/mL (wheat powdery mildew; dose 400 mg/L): 0%; pest or weed control at 6.25 µg/mL (corn rust): 0%; pest or weed control at 25 µg/mL (corn rust): 0%; pest or weed control at 100 µg/mL (corn rust): 0%
COc1ccc(Nc2c(Cl)c(F)c(C#N)c(F)c2C#N)cc1 [KC20]	–	0	0	0	0	0	–	0	0	0	0	0	50	pest or weed control at 400 µg/mL (wheat powdery mildew; dose 400 mg/L): 0%
N#Cc1c(Cl)c(Cl)c(Cl)c(C#N)c1Cl [chlorothalonil]	–	–	30	80	100	–	50	–	80	100	100	100	–	inhibition at 0.03 µg/mL (rice blast; Pyricularia oryzae): 0%; inhibition at 0.1 µg/mL (rice blast; Pyricularia oryzae): 30%; inhibition at 0.3 µg/mL (rice blast; Pyricularia oryzae): 100%
